# Experiments:
# [1] = system: cochlear nuclei and hippocampus neurons; assay: Neuronal excitability in cochlear nuclei and hippocampus neurons; type: cell-based
# Source text: To ascertain whether bilirubin regulates chloride ions through WNK1, we generated Wnk1 gene knockout primary cultured neurons. We achieved neuron‐specific deletion of Wnk1 in hippocampal neurons by transducing primary neurons isolated from Wnk1^flox/flox embryonic mice with a lentivirus expressing hSyn‐Cre‐EGFP.^[ [33], [34] ^] […] Intracellular chloride concentration is crucial for modulating inhibitory synaptic transmission and, consequently, neuronal excitability.
# HEK 293T cell line = assay: MQAE intracellular chloride measurement in HEK 293T cell line; type: cell-based, human; settings: lacking KCC2 expression
# Source text: Since bilirubin‐induced activation of WNK1 kinase activity increases [Cl⁻]i in neurons, we sought to elucidate the downstream effector proteins of WNK1 that are involved in this process. Neuronal [Cl⁻]i is primarily regulated by the Cl⁻‐K⁺ symporter KCC2, with additional modulation by factors such as the Na⁺‐K⁺‐Cl⁻ co‐transporter NKCC1, GABAA receptors, and glycine receptors (GlyR), all of which contribute to [Cl⁻]i homeostasis.^[ [31] ^] To investigate the mechanism underlying bilirubin‐induced changes in [Cl⁻]i, we selectively targeted these proteins using pharmacological inhibitors (VU0463271 for KCC2, bumetanide for NKCC1, bicuculline for GABAA receptors, and strychnine for GlyR) and activated KCC2 using CLP257.^[ [35], [36] ^] […] The bilirubin‐induced effect on [Cl⁻]i was not observed in primary astrocytes (Figure S15A,B, Supporting Information) or the HEK 293T cell line (Figure S15C, Supporting Information), both of which lacked KCC2 expression (Figure S16A,B, Supporting Information), further confirming that the effects of bilirubin and WNK1 on [Cl⁻]i elevation are dependent on KCC2.
# Intracellular chloride concentration ([Cl⁻]i) was measured using the MQAE fluorescent dye (Life Technologies) following established protocols (Zhang, Lee et al. 2015). […]
# [2] = system: LPS-induced NLRP3 inflammasome activation in hippocampus; assay: LPS-induced inflammation model in mice, hippocampal NLRP3 inflammasome activation; type: in vivo, mouse
# Source text: Furthermore, a murine model of infection‐induced inflammation was established in neonatal wild‐type, Blvra^−/− , and Ugt1a1^+/− mice by intraperitoneal administration of lipopolysaccharide (LPS) (Figure 5A).^[ [41], [42] ^] We assessed the expression levels of NLRP3 in the hippocampal region and the aggregation of the adaptor protein ASC in hippocampal neurons to indicate the level of inflammasome activation.^[ [43], [44] ^] We observed elevated NLRP3 expression (Figure 5B) and increased ASC aggregation in low‐bilirubin Blvra^−/− mice compared to wild‐type controls, whereas these parameters were reversed in high‐bilirubin Ugt1a1^+/− mice (Figure 5C,D). Additionally, Caspase‐1 enzyme activity decreased in high‐bilirubin mice (Figure 5E), supporting the inhibitory role of bilirubin in NLRP3 activation.
# Figure 5 Bilirubin‐WNK1 suppresses LPS‐induced NLRP3 activation in the mouse hippocampus. A) Diagram of the experimental design. LPS (0.6 µg g^−1) or normal saline (NS) was injected intraperitoneally (i.p.) for 5 consecutive days starting on day 7. Hippocampal tissues were harvested 6 h after last injection. B) Western blotting analysis of NLRP3 in hippocampal tissues from WT, Blvra^−/− , or Ugt1a1^+/− mice after LPS/saline treatment. C) Immunofluorescence staining of ASC speck formation in hippocampal tissues from WT, Blvra^−/− , or Ugt1a1^+/− mice after LPS/saline treatment. β3‐Tubulin was used to label neurons and DAPI to stain cell nuclei. Main image scale bars = 50 µm, inset scale bars = 5 µm. D) Summary data showing the percentage of cells containing ASC specks as shown in C) (n = 6). (E) Relative activity of caspase‐1 in hippocampal tissues from WT, Blvra^−/− , or Ugt1a1^+/− mice after LPS/saline treatment (n = 3). F) Experimental design diagram. LPS (0.6 µg g^−1), LPS combined with bilirubin (5 µg g^−1), or normal saline (NS) was injected intraperitoneally for 5 consecutive days starting on day 7. G) Western blotting analysis of NLRP3 in hippocampal tissues from Wnk1^fl/fl,Thy1‐Cre mice after treatment. H) Immunofluorescence staining of ASC speck formation in hippocampal tissues from vehicle‐treated and Wnk1^fl/fl,Thy1‐Cre mice after treatment. β3‐Tubulin was used to label neurons and DAPI to stain cell nuclei. Main image scale bars = 50 µm, inset scale bars = 5 µm. Corresponding images are also provided in Figure S21 (Supporting Information). I) Relative activity of caspase‐1 in hippocampal tissues from Wnk1^fl/fl and Wnk1^fl/fl,Thy1‐Cre mice after treatment (n = 3). Error bars indicate mean ± SD. *p < 0.05, **p < 0.01, ***p < 0.001, and ****p < 0.0001.
# To investigate the role of WNK1 in mediating the inhibitory effect of bilirubin on NLRP3 activation, we used Wnk1^fl/fl,Thy1‐Cre mice which is the hippocampal neuron‐specific Wnk1 knockout mice. Mice were then administered intraperitoneal injections of saline, LPS, or a combination of LPS and bilirubin (Figure 5F). After five days of LPS treatment, we observed increased staining areas for GFAP (an astrocyte marker) and IBA1 (a microglia marker). Furthermore, a portion of the adaptor protein ASC (encoded by PYCARD) co‐localized with IBA1 and GFAP.
# Caspase‐1 activity was measured using a Caspase‐1 Activity Assay Kit (Beyotime Biotechnology, Haimen, China). Briefly, 50 µg of protein from the mouse hippocampal tissue was added to a reaction buffer containing Ac‐YVAD‐ρNA. The absorbance was read at 405 nm using a microplate reader, and caspase‐1 activity was normalized to that of the control.
# TRPM2 channels = system: TRPM2 channels; design: method as in PMID 36921602; settings: activation of TRPM2 channels; cited from earlier work
# [3] = LPS 0.6 µg g−1 with bilirubin 5 µg g−1 i.p., 5 consecutive days, hippocampus
compound,measurement,setting,value
"C=CC1=C(C)/C(=C/c2[nH]c(Cc3[nH]c(/C=C4\NC(=O)C(C)=C4C=C)c(C)c3CCC(=O)O)c(CCC(=O)O)c2C)NC1=O [bilirubin, Bilirubin]",neural excitability,[1],induces neural hyperexcitability
same,bilirubin-induced effect on [Cl−]i,HEK 293T cell line,not observed
same,ASC speck formation,"[2]; LPS 0.6 µg g−1 with bilirubin 5 µg g−1 i.p., 5 consecutive days, hippocampal neurons",reduces
same,Caspase-1 activation,[2]; [3],reduces
same,IL-1β cleavage,[2]; [3],reduces
same,ASC aggregation in microglia or astrocytes,"[2]; LPS with bilirubin i.p., 5 days, IBA1 and GFAP co-localization",does not affect
same,"inhibitory effect on NLRP3 inflammasome assembly, Caspase-1 enzyme activity and IL-1β maturation after deletion of Wnk1","[2]; Wnk1fl/fl,Thy1-Cre mice, LPS stimulation",abolished
same,phosphorylation-mediated activation of the NF-κB p65 subunit,"[2]; upon LPS stimulation, hippocampus",neither bilirubin nor Wnk1 deficiency had a significant effect
same,EC50,TRPM2 channels,1900 nM

# Reference: publication PMC12362796, “Bilirubin Targeting WNK1 to Alleviate NLRP3‐Mediated Neuroinflammation” (Advanced Science, 2025)
